Experiments:
[1] = system: THP-1 macrophages; assay: Phagocytosis of FITC-PA in THP-1 macrophages; type: cell-based, human
Description: BMDM were isolated by culturing bone marrow cells in the presence of 10 ng/ml granulocyte-macrophage colony-stimulating factor (PeproTech) for 7 days. Murine macrophages were cultured in RPMI 1640 medium supplemented with 10% FBS and 1% penicillin-streptomycin. The human THP-1 cell line (American Type Culture Collection, Manassas, Va.) was grown in RPMI 1640 medium supplemented with 10% non-heat-inactivated fetal bovine serum and β-mercaptoethanol per manufacturer's instructions. Macrophage differentiation occurred through supplementation with 20 ng/ml Phorbol 12-myristate 13-acetate (Sigma Aldrich, St. Louis, Mo.) for 48 h.
(§1) Bacterial phagocytosis was quantified using a flow cytometry analysis.
THP-1 cells were infected with lentivirus particles containing MARCO shRNA (Open Biosystems, Huntsville, Ala.). Puromycin supplemented medium ensured positive selection of lentivirus plasmid-expres sing cells, and knockdown of MARCO mRNA and protein was confirmed by both real-time PCR and western blot.

[2] = system: SNO proteins; settings: anti-SNO immunoblot, verified by DAN assay, vs vehicle
Description: S-nitrosylated proteins were detected by using the nitrate/nitrite fluorometric assay kit from Cayman chemicals (Ann Arbor, Mich.) according to the manufacturer's instructions. For HDAC2-specific nitrosylation detection, cells were lysed in buffer (50 mM Tris-HCl, pH 8.0, 150 mM NaCl, 1% Nonidet P-40, 0.5% deoxycholic acid, 0.1% SDS). These lysates were then subjected to immunoprecipitation by using an anti-HDAC2 antibody as described above. The immunoprecipitates were washed twice with lysis buffer and twice with PBS. The pellets were resuspended in 500 μL of PBS. After the addition of 100 μM HgCl2 and 100 μM DAN, the samples were incubated in the dark at 25° C. for 30 minutes, and 1 M NaOH was added. The generated fluorescent triazole from the reaction of the DAN with the NO released from the HDAC2 protein was measured by using an excitation wavelength of 375 nm and an emission wavelength of 450 nm. As a negative control, the antibody alone in lysis buffer was immunoprecipitated. The resulting background fluorescence intensity was subtracted for each experiment.

[3] = system: CD80/86, MHC-11, CD14 and CD206; settings: FACS
Description: To examine the contribution of MARCO in mediating bacterial phagocytosis by alveolar macrophages following sulforaphane treatment, an antibody-depletion approach was employed. The specificity of anti-MARCO antibody was validated by immunoblot analysis (FIG. 12). […] To assess the effect of sulforaphane on the phenotype of macrophages, CD80/86, MHC-11, CD14 and CD206 were analyzed by FACS.

[4] = system: Pseudomonas aeruginosa; assay: Phagocytosis assay, FITC-labeled PA, alveolar macrophages; type: cell-based, human
Description: Human alveolar macrophages were purified from individual BAL samples by centrifugation and seeded onto 6-well tissue culture plates. After incubation for 2 h, non-adherent cells were removed and the adherent cells were incubated with R, S-sulforaphane (5 μM; LKT Laboratories, Inc., St. Paul, Minn.) and or DMSO in RPMI 1640 culture medium with 10% FBS and 1% penicillin-streptomycin (Invitrogen, Carlsbad, Calif.). After 16-20 h, adherent cells were scraped, suspended in RPMI 1640 culture media and plated onto 96-well tissue culture plates for bacterial phagocytosis and clearance assays. […] For MARCO antibody-depletion, alveolar macrophages were incubated with human anti-MARCO antibody (1 μg/ml; (Hycult, Uden, The Netherlands) for 4 hours prior to bacterial challenge.
Sputum isolates of nontypeable H. influenzae and P. aeruginosa obtained from patients with COPD at the Department of Veterans Affairs, Western New York Healthcare System were used (S. Sethi, N. Evans, B. J. Grant, T. F. Murphy, N Engl J Med 347, 465 (Aug. 15, 2002); C. S. Berenson, M. A. Garlipp, L. J. Grove, J. Maloney, S. Sethi, J Infect Dis 194, 1375 (Nov. 15, 2006); T. F. Murphy et al., Am J Respir Crit Care Med 177, 853 (Apr. 15, 2008); T. F. Murphy, A. L. Brauer, A. T. Schiffmacher, S. Sethi, Am J Respir Crit Care Med 170, 266 (Aug. 1, 2004)). For bacterial growth, H. influenzae was cultured on chocolate agar or grown in brain heart infusion broth supplemented with 20 μg/mlNAD and 10 μg/ml hemin at 35° C. in 5% CO2. P. aeruginosa was cultured on LB agar plates or in LB broth at 37° C. For FITC-labeling of bacteria, heat inactivated PA and NTHI (10^9 CFU/ml) were resuspended in 1 ml of labeling buffer (0.1 M NaHCO3, pH 9.2) and incubated with fluorescein isothiocyanate (FITC) (Sigma) under constant stiffing in the dark at room temperature for 1 h. Finally, bacteria were washed three times with PBS and dialyzed overnight against PBS. FITC-labeled bacteria were resuspended with PBS at a concentration of 10^9/ml.
as §1

C[S+]([O-])CCCCN=C=S (centres unmarked) [sulforaphane]
phagocytosis of FITC-Pseudomonas aeruginosa ([1]; THP-1 macrophages transfected with Luc-shRNA): significantly elevated phagocytosis
phagocytosis of FITC-Pseudomonas aeruginosa ([1]; THP-1 macrophages with MARCO-shRNA): but not in MARCO-shRNA
SNO proteins in lysates [2]: significant reduction in SNO proteins
expression of other markers (MHC-11, CD14) [3]: no significant difference
expression of receptors CD80/86 and CD206 [3]: Moderate suppression
phagocytosis of FITC-labeled Pseudomonas aeruginosa ([4]; COPD alveolar macrophages, compared to vehicle): significantly enhanced phagocytosis
bacterial phagocytosis ([4]; Nrf2-siRNA transfected macrophages): failed to do so
bacterial phagocytosis ([4]; alveolar macrophages transfected with control ssRNA): enhanced bacterial phagocytosis
